According to patent US20130274338A1, “PHARMACEUTICAL COMPOSITIONS COMPRISING DGLA, 15-OHEPA, AND/OR 15-HETRE AND METHODS OF REDUCING SEBUM PRODUCTION USING SAME” (priority 2012, published 2013):

System: P. acnes
Assay: Agar dilution method, growth of P. acnes and MIC, combinations with a fatty acid spike
Type: cell-based, Propionibacterium acnes
Design: key to Growth Index Plate 1 / Growth Index Plate 2 / Growth Index Plate 3 / Growth Index Avg: +++: confluent growth (comparable to control); ++: less confluent growth; +: marked reduction in growth to multiple tiny, single colonies; −: no growth present
Experimental: Several compounds including fatty acids such as DGLA, 15-OHEPA, and 15-HETrE were tested to determine their capacity to inhibit the growth of P. acnes. In an exemplary method, an agar dilution method was used to determine the minimum inhibitory concentration (MIC) of each tested compound. Briefly, the agar dilution method involved preparing a series of concentrations of each compound (e.g., nicotinamide, benzoyl peroxide, adapalene, metronidazole, DGLA, 15-OHEPA, and 15-HETrE) in a Reinforced Clostridial Agar (RCA) media that facilitates growth of P. acnes under anaerobic conditions. An inoculum of P. acnes was prepared by incubation of P. acnes for approximately seven days at 35-37° C. to achieve a ≧1.0 OD600 inoculum of P. acnes in RCM broth. A portion of this inoculum was then added to the surface of each plate as a 10 μL spot and incubated at 35-37° C. for 72 hours or more. Growth of P. acnes was then observed and compared to control plates in which no compound has been added, and positive inhibition plates prepared with erythromycin. […] The growth of P. acnes in the presence of nicotinamide, benzoyl peroxide, adapalene, metronidazole, DGLA, 15-OHEPA, and 15-HETrE was determined with varying concentrations of the compound (see, Table 2). Next, the MIC was determined as the concentration at which a marked reduction (+) occurs in the appearance of growth on the test plate (as per Clinical and Laboratory Standards Institute M11-A7).
The compounds tested singly in Example 1 were tested in combination with one another to determine the capacity of the combination to inhibit the growth of P. acnes. In an exemplary method, the MIC was determined for each of the combination as described in Example 1. Briefly, test combinations included DGLA with nicotinamide, benzoyl peroxide, adapalene, or metronidazole; 15-HETrE with nicotinamide, benzoyl peroxide, adapalene, or metronidazole; and 15-OHEPA with nicotinamide, benzoyl peroxide, adapalene, or metronidazole. The tables below show the growth of P. acnes in the presence of 0.4 or 1.0 mg/mL DGLA with varying concentrations of nicotinamide, benzoyl peroxide, adapalene, or metronidazole (Table 3); the growth of P. acnes in the presence of 0.01 or 0.05 mg/mL 15-HETrE with varying concentrations of nicotinamide, benzoyl peroxide, adapalene, or metronidazole (Table 5); and the growth of P. acnes in the presence of 0.5 or 0.1 mg/mL 15-OHEPA with varying concentrations of nicotinamide, benzoyl peroxide, adapalene, or metronidazole (Table 7).

[1] = compound at 0.2 mg/mL + 0.01 mg/mL 15-HETrE
[2] = compound at 0.2 mg/mL + 0.05 mg/mL 15-HETrE
[3] = compound at 0.2 mg/mL + 0.05 mg/mL 15-OHEPA
[4] = compound at 0.2 mg/mL + 0.1 mg/mL 15-OHEPA
[5] = compound at 0.2 mg/mL + 0.4 mg/mL dGLA
[6] = compound at 0.2 mg/mL + 1.0 mg/mL dGLA
[7] = compound at 0.4 mg/mL + 0.01 mg/mL 15-HETrE
[8] = compound at 0.4 mg/mL + 0.05 mg/mL 15-HETrE
[9] = compound at 0.4 mg/mL + 0.05 mg/mL 15-OHEPA
[10] = compound at 0.4 mg/mL + 0.1 mg/mL 15-OHEPA
[11] = compound at 0.4 mg/mL + 0.4 mg/mL dGLA
[12] = compound at 0.4 mg/mL + 1.0 mg/mL dGLA
[13] = compound at 0.6 mg/mL + 0.01 mg/mL 15-HETrE
[14] = compound at 0.6 mg/mL + 0.05 mg/mL 15-HETrE
[15] = compound at 0.6 mg/mL + 0.05 mg/mL 15-OHEPA
[16] = compound at 0.6 mg/mL + 0.1 mg/mL 15-OHEPA
[17] = compound at 0.6 mg/mL + 0.4 mg/mL dGLA
[18] = compound at 0.6 mg/mL + 1.0 mg/mL dGLA
[19] = compound at 0.8 mg/mL + 0.01 mg/mL 15-HETrE
[20] = compound at 0.8 mg/mL + 0.05 mg/mL 15-HETrE
[21] = compound at 0.8 mg/mL + 0.05 mg/mL 15-OHEPA
[22] = compound at 0.8 mg/mL + 0.1 mg/mL 15-OHEPA
[23] = compound at 0.8 mg/mL + 0.4 mg/mL dGLA
[24] = compound at 0.8 mg/mL + 1.0 mg/mL dGLA
[25] = compound at 1.0 mg/mL + 0.01 mg/mL 15-HETrE
[26] = compound at 1.0 mg/mL + 0.05 mg/mL 15-HETrE
[27] = compound at 1.0 mg/mL + 0.05 mg/mL 15-OHEPA
[28] = compound at 1.0 mg/mL + 0.1 mg/mL 15-OHEPA
[29] = compound at 1.0 mg/mL + 0.4 mg/mL dGLA
[30] = compound at 1.0 mg/mL + 1.0 mg/mL dGLA

Cc1ncc([N+](=O)[O-])n1CCO [Metronidazole]
Growth Index Avg [1]: +++ | Growth Index Plate 1 [1]: +++ | Growth Index Plate 2 [1]: +++ | Growth Index Plate 3 [1]: +++ | Growth Index Avg [2]: − | Growth Index Plate 1 [2]: − | Growth Index Plate 2 [2]: − | Growth Index Plate 3 [2]: − | Growth Index Avg [3]: +++ | Growth Index Plate 1 [3]: +++ | Growth Index Plate 2 [3]: +++ | Growth Index Plate 3 [3]: +++ | Growth Index Avg [4]: − | Growth Index Plate 1 [4]: − | Growth Index Plate 2 [4]: − | Growth Index Plate 3 [4]: − | Growth Index Avg [5]: +++ | Growth Index Plate 1 [5]: +++ | Growth Index Plate 2 [5]: +++ | Growth Index Plate 3 [5]: +++ | Growth Index Avg [6]: +++ | Growth Index Plate 1 [6]: +++ | Growth Index Plate 2 [6]: +++ | Growth Index Plate 3 [6]: +++ | Growth Index Avg [7]: +++ | Growth Index Plate 1 [7]: +++ | Growth Index Plate 2 [7]: +++ | Growth Index Plate 3 [7]: +++ | Growth Index Avg [8]: − | Growth Index Plate 1 [8]: − | Growth Index Plate 2 [8]: − | Growth Index Plate 3 [8]: − | Growth Index Avg [9]: +++ | Growth Index Plate 1 [9]: +++ | Growth Index Plate 2 [9]: +++ | Growth Index Plate 3 [9]: +++ | Growth Index Avg [10]: − | Growth Index Plate 1 [10]: − | Growth Index Plate 2 [10]: − | Growth Index Plate 3 [10]: − | Growth Index Avg [11]: +++ | Growth Index Plate 1 [11]: +++ | Growth Index Plate 2 [11]: +++ | Growth Index Plate 3 [11]: +++ | Growth Index Avg [12]: +++ | Growth Index Plate 1 [12]: +++ | Growth Index Plate 2 [12]: +++ | Growth Index Plate 3 [12]: +++ | Growth Index Avg [13]: +++ | Growth Index Plate 1 [13]: +++ | Growth Index Plate 2 [13]: +++ | Growth Index Plate 3 [13]: +++ | Growth Index Avg [14]: − | Growth Index Plate 1 [14]: − | Growth Index Plate 2 [14]: − | Growth Index Plate 3 [14]: − | Growth Index Avg [15]: +++ | Growth Index Plate 1 [15]: +++ | Growth Index Plate 2 [15]: +++ | Growth Index Plate 3 [15]: +++ | Growth Index Avg [16]: − | Growth Index Plate 1 [16]: − | Growth Index Plate 2 [16]: − | Growth Index Plate 3 [16]: − | Growth Index Avg [17]: +++ | Growth Index Plate 1 [17]: +++ | Growth Index Plate 2 [17]: +++ | Growth Index Plate 3 [17]: +++ | Growth Index Avg [18]: +++ | Growth Index Plate 1 [18]: +++ | Growth Index Plate 2 [18]: +++ | Growth Index Plate 3 [18]: +++ | Growth Index Avg [19]: +++ | Growth Index Plate 1 [19]: +++ | Growth Index Plate 2 [19]: +++ | Growth Index Plate 3 [19]: +++ | Growth Index Avg [20]: − | Growth Index Plate 1 [20]: − | Growth Index Plate 2 [20]: − | Growth Index Plate 3 [20]: − | Growth Index Avg [21]: +++ | Growth Index Plate 1 [21]: +++ | Growth Index Plate 2 [21]: +++ | Growth Index Plate 3 [21]: ++ | Growth Index Avg [22]: − | Growth Index Plate 1 [22]: − | Growth Index Plate 2 [22]: − | Growth Index Plate 3 [22]: − | Growth Index Avg [23]: ++ | Growth Index Plate 1 [23]: +++ | Growth Index Plate 2 [23]: ++ | Growth Index Plate 3 [23]: ++ | Growth Index Avg [24]: +++ | Growth Index Plate 1 [24]: +++ | Growth Index Plate 2 [24]: +++ | Growth Index Plate 3 [24]: ++ | Growth Index Avg [25]: +++ | Growth Index Plate 1 [25]: +++ | Growth Index Plate 2 [25]: +++ | Growth Index Plate 3 [25]: +++ | Growth Index Avg [26]: − | Growth Index Plate 1 [26]: − | Growth Index Plate 2 [26]: − | Growth Index Plate 3 [26]: − | Growth Index Avg [27]: +++ | Growth Index Plate 1 [27]: +++ | Growth Index Plate 2 [27]: ++ | Growth Index Plate 3 [27]: +++ | Growth Index Avg [28]: − | Growth Index Plate 1 [28]: − | Growth Index Plate 2 [28]: − | Growth Index Plate 3 [28]: − | Growth Index Avg [29]: ++ | Growth Index Plate 1 [29]: ++ | Growth Index Plate 2 [29]: ++ | Growth Index Plate 3 [29]: ++ | Growth Index Avg [30]: ++ | Growth Index Plate 1 [30]: ++ | Growth Index Plate 2 [30]: ++ | Growth Index Plate 3 [30]: ++ | growth of P. Acnes in combination with 15-HETrE, compared with 15-HETrE used alone (in combination with 15-HETrE): did not reduce the growth | growth of P. Acnes in combination with 15-OHEPA, compared with 15 OHEPA used alone (in combination with 15-OHEPA): did not reduce the growth | growth of P. Acnes in combination with DGLA, compared with DGLA used alone (in combination with DGLA): did not reduce the growth
